Laboratory results published in ChEMBL document CHEMBL1151300, “Studies on Aristolochia III. Isolation and biological evaluation of constituents of Aristolochia indica roots for fertility-regulating activity” (J Nat Prod, 1984).
The source made the active and inactive calls. No cut-off for these calls is given here.

Columns and labels:
Syrian golden hamster = assay: Toxicity in golden syrian hamster at 25 mg/kg; format: organism-based, Mesocricetus auratus; parameters: dose 25 mg/kg; settings: in vivo
Rattus norvegicus [1] = assay: Antifertility effect in Sprague-Dawley rat assessed as number of pregnant animals at 40 mg/kg, po administered postcoitally for 1 to 10 days; format: functional, organism-based; parameters: dose 40 mg/kg
Rattus norvegicus [2] = assay: Toxicity in Sprague-Dawley rat at 40 mg/kg; format: organism-based; parameters: dose 40 mg/kg; settings: in vivo
Rattus norvegicus [3] = assay: Antifertility effect in Sprague-Dawley rat assessed as number of pregnant animals at 10 mg/kg administered postcoitally for 1 to 10 days; format: functional, organism-based; parameters: dose 10 mg/kg
Rattus norvegicus [4] = assay: Antifertility effect in Sprague-Dawley rat assessed as number of pregnant animals at 2 mg/kg administered postcoitally for 1 to 10 days; format: functional, organism-based; parameters: dose 2 mg/kg
Rattus norvegicus [5] = assay: Antifertility effect in Sprague-Dawley rat assessed as number of pregnant animals at 40 mg/kg, po administered postcoitally for 1 to 6 days; format: functional, organism-based; parameters: dose 40 mg/kg
Mus musculus [6] = assay: Antifertility effect in CD1 mouse assessed as number of pregnant animals at 100 mg/kg, po administered postcoitally for 6 days; format: functional, organism-based; parameters: dose 100 mg/kg
Mus musculus [7] = assay: Antifertility effect in CD1 mouse assessed as number of pregnant animals at 50 mg/kg, po administered postcoitally for 6 days; format: functional, organism-based; parameters: dose 50 mg/kg
Rattus norvegicus [8] = assay: Antifertility effect in Sprague-Dawley rat assessed as number of pregnant animals at 58 mg/kg, po administered postcoitally for 1 to 6 days; format: functional, organism-based; parameters: dose 58 mg/kg

Q: How did the Activity (Syrian golden hamster) turn out when `COc1cccc2c1cc([N+](=O)[O-])c1c(C(=O)O)cc3c(c12)OCO3` [ARISTOLOCHIC ACID] was run?
A: Active

Q: And the Activity (Rattus norvegicus [1])?
A: Active

Q: And the Activity (Rattus norvegicus [2])?
A: Active

Q: What about the Activity (Rattus norvegicus [3]) of the same molecule?
A: inactive

Q: For `COc1cccc2c1ccc1c(C(=O)O)cc3c(c12)OCO3`, which Activity (Rattus norvegicus [4]) is on record?
A: inactive

Q: And the Activity (Rattus norvegicus [5])?
A: inactive

Q: With `C[C@@H]1CCC[C@]23C[C@@H](CC[C@@]12C)[C@@](C)(O)C3` as the molecule, how does the Activity (Mus musculus [6]) read?
A: inactive

Q: `COC(=O)c1cc2c(c3c1ccc1c(OC)cccc13)OCO2` was tested. Which Activity (Mus musculus [7]) did it give?
A: inactive

Q: `O=C1OC[C@H](Cc2ccc3c(c2)OCO3)/C1=C\c1ccc2c(c1)OCO2` was tested. Which Activity (Rattus norvegicus [8]) did it give?
A: inactive
